Assay results from ChEMBL document CHEMBL1151982, “Natural products as tools for neuroscience: discovery and development of novel agents to treat drug abuse” (J Nat Prod, 2009).

Legend:
Assay type in all cases: functional
[1] = target: T1, Kappa-type opioid receptor (Homo sapiens, UniProt P41145); assay: Agonist activity at kappa opioid receptor by [35S]GTPgammaS binding assay
[2] = target: T1, Kappa-type opioid receptor; assay: Agonist activity at kappa opioid receptor by [35S]GTPgammaS binding assay relative to (-)-U50,488H
[3] = target: T1, Kappa-type opioid receptor; assay: Antagonist activity at kappa opioid receptor by [35S]GTPgammaS binding assay

T1 sequence (P41145 whole entry): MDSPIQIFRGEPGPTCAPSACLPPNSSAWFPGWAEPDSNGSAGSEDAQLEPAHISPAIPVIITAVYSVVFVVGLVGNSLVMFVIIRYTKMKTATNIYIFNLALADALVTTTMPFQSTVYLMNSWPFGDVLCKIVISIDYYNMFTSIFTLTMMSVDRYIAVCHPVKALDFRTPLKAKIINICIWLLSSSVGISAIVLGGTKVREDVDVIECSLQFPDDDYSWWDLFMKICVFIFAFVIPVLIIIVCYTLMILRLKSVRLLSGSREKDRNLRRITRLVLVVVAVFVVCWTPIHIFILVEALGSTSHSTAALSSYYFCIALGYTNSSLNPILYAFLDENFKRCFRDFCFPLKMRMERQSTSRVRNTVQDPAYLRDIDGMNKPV

COC(=O)[C@@H]1C[C@H](OC(C)=O)C(=O)[C@H]2[C@@]1(C)CC[C@H]1C(=O)O[C@H]([C@]3(O)[C@H](OC)O[C@H](OC)[C@H]3O)C[C@]21C [SALVINICIN A]
EC50 [1]: 4.1 µM
Emax [2]: 80%

COC(=O)[C@@H]1C[C@H](OC(C)=O)C(=O)[C@@H]2[C@@]3(C)C[C@@H]([C@]4(O)[C@@H](OC)O[C@@H](OC)[C@H]4O)CC(=O)[C@@H]3CC[C@]21C [SALVINICIN B]
Ki [3]: > 1.9 µM
